# Patent publication US8956589B2, “Imaging diagnostic agent and extracorporeal diagnostic agent for incurable neurological diseases” (Shiga University of Medical Science, priority 2009, dated 2015)
# Columns and labels:
# [1] = biological target: amyloid β peptide aggregates (1-40) (Homo sapiens (Human), UniProt P05067); format: binding; details: for IC50: aggregates 1 μM, thioflavin-T 3 μM, compound 0.02 to 20 μM, 30 minutes at 23° C., read-out: Amyloid binding property (IC50); for binding to amyloid β peptide aggregates (in words): thioflavin-T fluorescence inhibition
# amyloid β peptide aggregates (1-40), sequence (P05067 672-711): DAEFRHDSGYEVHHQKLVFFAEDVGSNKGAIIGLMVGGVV
# Procedure: The binding capacity of the compounds to an amyloid β peptide aggregate was quantitatively measured by a thioflavin-T fluorescence inhibition test. […] The resultant solution was cause to react for 30 minutes at 23° C. with the light shielded. Then, the fluorescence of thioflavin-T was measured under a condition of Ex=440 nm, Em=490 nm, Cutoff filter=475 nm. The IC50 values were calculated by using an analysis software, GraphPad PRISM Ver.5 (GraphPad Software, Inc.).
# [2] = biological target: amyloid β peptide aggregates (Homo sapiens (Human), UniProt P05067); experiment: Binding to and release from precipitated amyloid β peptide aggregates (absorbance of supernatant); details: compound 2 μg/mL in phosphate buffer, 1 hour reaction
# amyloid β peptide aggregates, sequence (P05067 672-711): as above
# Procedure: Each of compound 23, compound 1, and compound 24 is dissolved at a concentration of 2 μg/mL, in a phosphate buffer, and then amyloid β peptide aggregates are added to each solution, and the resultant solution is caused to react for 1 hour. Then, the solution is centrifuged for 10 minutes at 6,000 rpm, to separate the amyloid β peptide aggregates. A supernatant was removed, and an absorbance measurement was performed to measure the quantity of the compound that had not bound to the amyloid peptide aggregates and that were contained in the supernatant. The obtained quantity was subtracted from the original quantity of the compound, whereby the quantity of the compound that had bound to the amyloid β peptide aggregates was calculated.
# Next, the precipitated amyloid β peptide aggregates were washed, a buffer was added thereto, and the quantity of the compound that got released was measured. Then, the rate of the compound that had bound to amyloid β peptide aggregates and then was eluted into the buffer was calculated using the original quantity of the compound as 100%.
Structure (SMILES),IC50 ([1]; pH 7.4) [nM],melting point,binding to amyloid β peptide aggregates (in words) [1],binding rate to amyloid β peptide aggregates [2] [%],solubility remark in amyloid binding test ([1]; pH 7.4)
COC(=O)CC(C(=O)/C=C/c1ccc(O)c(OC(F)(F)F)c1)C(=O)/C=C/c1ccc(O)c(OC(F)(F)F)c1 [Compound 5],520,140 to 141 °C,,,
COC(=O)CCC(C(=O)/C=C/c1ccc(O)c(OC(F)(F)F)c1)C(=O)/C=C/c1ccco1 (centres unmarked) [Compound 30],650,141 °C,,,
CC(C)(C)OC(=O)CCC(C(=O)/C=C/c1ccc(O)c(OC(F)(F)F)c1)C(=O)/C=C/c1ccc(O)c(OC(F)(F)F)c1 [Compound 9],650,175 °C,,,
COC(=O)CCCC(C(=O)/C=C/c1ccc(O)c(OC(F)(F)F)c1)C(=O)/C=C/c1ccc(O)c(OC(F)(F)F)c1 [Compound 6],310,147 to 148 °C,,,
COc1cc(/C=C/C(=O)CC(=O)/C=C/c2cncc(C(F)(F)F)c2)ccc1O [Compound 29],100,187 to 189 °C,,,
COCOCCCC(C(=O)/C=C/c1ccc(O)c(OC(F)(F)F)c1)C(=O)/C=C/c1ccc(O)c(OC(F)(F)F)c1 [Compound 20],500,,,,
O=C(/C=C/c1ccc(O)c(OC(F)(F)F)c1)CC(=O)/C=C/c1ccc(O)c(OC(F)(F)F)c1 [Compound 23],210,172 to 173 °C,strongly bound,85,
"O=C(/C=C/c1ccc(O)c(OC(F)(F)F)c1)C(CCOCCO)C(=O)/C=C/c1ccc(O)c(OC(F)(F)F)c1 [Compound 22, 1,7-bis(4′-hydroxy-3′-trifluoromethoxyphenyl)-4-(2′-hydroxyethoxyethyl)-1,6-heptadiene-3,5-dione]",700,112 to 114 °C,,,
COc1ccc(/C=C/C(=O)C(CCC(=O)O)C(=O)/C=C/c2ccc(OC)c(F)c2)cc1F [Compound 4],,171 to 172 °C,,,
COc1ccc(/C=C/C(=O)C(CCC(=O)[O-])C(=O)/C=C/c2ccc(OC)c(F)c2)cc1F.[Na+] [Compound 12],,> 200 °C,,,
CNc1ccc(/C=C/C(=O)CC(=O)/C=C/c2ccc(NC)c(C(F)(F)F)c2)cc1C(F)(F)F [Compound 28],5800,192 to 194 °C,,,hardly soluble
CC(C)OC(=O)CCC(C(=O)/C=C/c1ccc(O)c(OC(F)(F)F)c1)C(=O)/C=C/c1ccc(O)c(OC(F)(F)F)c1 [Compound 10],,191 °C,,,
COc1cc(/C=C/C(=O)CC(=O)/C=C/c2ccc(OCC(=O)O)c(OC)c2)ccc1O [Compound 26],310,190 to 192 °C (dec.),,,
"COC(=O)CCC(C(=O)C=Cc1ccc(OC(C)=O)c(OC(F)(F)F)c1)C(=O)C=Cc1ccc(OC(C)=O)c(OC(F)(F)F)c1 (centres unmarked) [Compound 17, 1,7-bis(4′-acetoxy-3′-trifluoromethoxyphenyl)-4-methoxycarbonylethyl-1,6-heptadiene-3,5-dione]",,149 to 150 °C,,,
COC(=O)CCC(C(=O)/C=C/c1ccc(O)c(OC(F)(F)F)c1)C(=O)/C=C/c1ccc(OC(C)=O)c(OC(F)(F)F)c1 (centres unmarked) [Compound 18],,124 to 126 °C,,,
N#CCCC(C(=O)/C=C/c1ccc(O)c(OC(F)(F)F)c1)C(=O)/C=C/c1ccc(O)c(OC(F)(F)F)c1 [Compound 15],300,134 to 135 °C,,,
CCOC(=O)CCC(C(=O)/C=C/c1ccc(O)c(OC(F)(F)F)c1)C(=O)/C=C/c1ccc(O)c(OC(F)(F)F)c1 [Compound 8],380,155 to 156 °C,,,
COC(=O)COc1ccc(/C=C/C(=O)CC(=O)/C=C/c2ccc(O)c(OC)c2)cc1OC [Compound 25],140,88 to 90 °C,,,
COC(=O)CCC(C(=O)/C=C/c1ccc(O)c(C(F)(F)F)c1)C(=O)/C=C/c1ccc(O)c(C(F)(F)F)c1 [Compound 14],360,183 °C,,,
CC(C(=O)/C=C/c1ccc(O)c(OC(F)(F)F)c1)C(=O)/C=C/c1ccc(O)c(OC(F)(F)F)c1 [Compound 16],320,178 to 179 °C,,,
COC(=O)CCC(C(=O)/C=C/c1cc(F)c(O)c(F)c1)C(=O)/C=C/c1cc(F)c(O)c(F)c1 [Compound 11],,178 to 179 °C,,,
COc1cc(/C=C/C(=O)CC(=O)/C=C/c2ccc(O)c(C(F)(F)F)c2)ccc1O [Compound 27],130,200 °C,,,
CCOC(=O)C(C(=O)/C=C/c1ccc(O)c(OC(F)(F)F)c1)C(=O)/C=C/c1ccc(O)c(OC(F)(F)F)c1 [Compound 7],140,179 to 180 °C,,,
CN(C)C(=O)CCC(C(=O)/C=C/c1ccc(O)c(OC(F)(F)F)c1)C(=O)/C=C/c1ccc(O)c(OC(F)(F)F)c1 [Compound 21],500,192 to 193 °C,,,
"CC(C)(C(=O)/C=C/c1ccc(O)c(OC(F)(F)F)c1)C(=O)/C=C/c1ccc(O)c(OC(F)(F)F)c1 [Compound 24, reference compound]",> 15000,,scarcely bound,27,
"O=C(O)CCC(C(=O)/C=C/c1ccc(O)c(OC(F)(F)F)c1)C(=O)/C=C/c1ccc(O)c(OC(F)(F)F)c1 [Compound 2, 1,7-bis(4′-hydroxy-3′-trifluoromethoxyphenyl)-4-carboxylethyl-1,6-heptadiene-3,5-dione]",1300,,,,
"CC(=O)OCCCC(C(=O)/C=C/c1ccc(O)c(OC(F)(F)F)c1)C(=O)/C=C/c1ccc(O)c(OC(F)(F)F)c1 [Compound 13, 1,7-bis(4′-hydroxy-3′-trifluoromethoxyphenyl)-4-acetoxypropyl-1,6-heptadiene-3,5-dione]",,130 to 131 °C,,,
COC(=O)CCC(C(=O)/C=C/c1ccc(OC)c(F)c1)C(=O)/C=C/c1ccc(OC)c(F)c1 [Compound 3],,170 to 171 °C,,,
